Experiments:
Assay in all cases: Kinase panel, CaNDY 1 µM
Format in all cases: biochemical
Conditions in all cases: CaNDY 1 µM relative to DMSO
CK1α = biological target: T1, CK1α (Homo sapiens, UniProt P48729)
T1 construct: purchased Carna Biosciences
Procedure, shortened: (§1)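 Here the enzymes were purified GST-fusion, full-length human kinases from baculovirus expression. After a one-hour room-temperature reaction in buffer with 1% DMSO, substrate phosphorylation was quantified by electrophoretic mobility shift and expressed as percent inhibition.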

p38β = biological target: T2, p38β (Homo sapiens, UniProt Q15759)
T2 construct: purchased Carna Biosciences
Procedure, shortened: as §1

TSSK2 = biological target: T3, TSSK2 (Homo sapiens, UniProt Q96PF2)
T3 construct: purchased Carna Biosciences
Procedure, shortened: as §1

skMLCK = biological target: T4, skMLCK (Homo sapiens, UniProt Q9H1R3)
T4 construct: purchased Carna Biosciences
Procedure, shortened: as §1

ABL = biological target: T5, ABL (Homo sapiens, UniProt P00519)
T5 construct: purchased Carna Biosciences
Procedure, shortened: as §1

EGFR(L861Q) = biological target: T6, EGFR(L861Q) (Homo sapiens, UniProt P00533, L861Q)
T6 construct: purchased Carna Biosciences
Procedure, shortened: as §1

MRCKα = biological target: T7, MRCKα (Homo sapiens, UniProt Q5VT25)
T7 construct: purchased Carna Biosciences
Procedure, shortened: as §1

PDGFRβ = biological target: T8, PDGFRβ (Homo sapiens, UniProt P09619)
T8 construct: purchased Carna Biosciences
T8 sequence (P09619 33-1106): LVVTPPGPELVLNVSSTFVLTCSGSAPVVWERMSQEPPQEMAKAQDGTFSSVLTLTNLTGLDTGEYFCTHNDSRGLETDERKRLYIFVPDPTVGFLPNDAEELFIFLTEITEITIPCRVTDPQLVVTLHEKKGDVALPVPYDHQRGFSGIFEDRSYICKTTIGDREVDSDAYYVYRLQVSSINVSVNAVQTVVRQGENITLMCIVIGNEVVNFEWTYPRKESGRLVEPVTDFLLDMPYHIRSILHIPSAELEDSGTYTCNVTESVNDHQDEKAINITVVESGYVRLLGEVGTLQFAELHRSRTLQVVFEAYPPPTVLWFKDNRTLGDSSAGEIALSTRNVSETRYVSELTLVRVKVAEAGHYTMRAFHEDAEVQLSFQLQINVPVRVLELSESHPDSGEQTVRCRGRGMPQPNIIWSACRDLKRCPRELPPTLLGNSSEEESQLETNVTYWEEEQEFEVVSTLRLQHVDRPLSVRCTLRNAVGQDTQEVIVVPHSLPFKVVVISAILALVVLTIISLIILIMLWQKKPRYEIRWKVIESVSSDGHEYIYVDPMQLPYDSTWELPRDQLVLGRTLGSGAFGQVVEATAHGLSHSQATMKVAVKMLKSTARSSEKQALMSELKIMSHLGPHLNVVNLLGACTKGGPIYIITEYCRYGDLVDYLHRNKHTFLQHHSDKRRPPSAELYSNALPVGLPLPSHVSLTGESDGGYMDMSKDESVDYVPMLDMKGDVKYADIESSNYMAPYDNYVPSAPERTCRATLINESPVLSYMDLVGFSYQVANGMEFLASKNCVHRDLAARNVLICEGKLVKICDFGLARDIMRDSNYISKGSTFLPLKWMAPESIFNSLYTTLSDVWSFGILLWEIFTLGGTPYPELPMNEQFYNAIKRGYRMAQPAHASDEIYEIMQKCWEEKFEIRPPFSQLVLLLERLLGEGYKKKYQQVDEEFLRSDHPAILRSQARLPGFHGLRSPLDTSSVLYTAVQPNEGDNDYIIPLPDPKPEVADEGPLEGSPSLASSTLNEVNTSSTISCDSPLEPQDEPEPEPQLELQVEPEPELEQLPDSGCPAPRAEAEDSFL
Procedure, shortened: as §1

EPHA2 = biological target: T9, EPHA2 (Homo sapiens, UniProt P29317)
T9 construct: purchased Carna Biosciences
Procedure, shortened: as §1

CK1γ1 = biological target: T10, CK1γ1 (Homo sapiens, UniProt Q9HCP0)
T10 construct: purchased Carna Biosciences
Procedure, shortened: as §1

PRKX = biological target: T11, PRKX (Homo sapiens, UniProt P51817)
T11 construct: purchased Carna Biosciences
T11 sequence (P51817 whole entry): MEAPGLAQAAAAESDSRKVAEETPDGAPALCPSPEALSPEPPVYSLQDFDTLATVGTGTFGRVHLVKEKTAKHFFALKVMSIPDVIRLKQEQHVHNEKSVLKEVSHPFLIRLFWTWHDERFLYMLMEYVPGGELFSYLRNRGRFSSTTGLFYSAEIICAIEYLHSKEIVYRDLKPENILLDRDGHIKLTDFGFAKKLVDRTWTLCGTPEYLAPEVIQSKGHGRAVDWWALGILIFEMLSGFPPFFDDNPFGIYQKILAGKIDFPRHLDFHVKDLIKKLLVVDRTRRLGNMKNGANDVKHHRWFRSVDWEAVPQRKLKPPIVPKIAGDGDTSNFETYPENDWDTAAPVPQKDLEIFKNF
Procedure, shortened: as §1

PIM3 = biological target: T12, PIM3 (Homo sapiens, UniProt Q86V86)
T12 construct: purchased Carna Biosciences
Procedure, shortened: as §1

MELK = biological target: T13, MELK (Homo sapiens, UniProt Q14680)
T13 construct: purchased Carna Biosciences
Procedure, shortened: as §1

SRC = biological target: T14, SRC (Homo sapiens, UniProt P12931)
T14 construct: purchased Carna Biosciences
Procedure, shortened: as §1

NEK2 = biological target: T15, NEK2 (Homo sapiens, UniProt P51955)
T15 construct: purchased Carna Biosciences
T15 sequence (P51955 whole entry): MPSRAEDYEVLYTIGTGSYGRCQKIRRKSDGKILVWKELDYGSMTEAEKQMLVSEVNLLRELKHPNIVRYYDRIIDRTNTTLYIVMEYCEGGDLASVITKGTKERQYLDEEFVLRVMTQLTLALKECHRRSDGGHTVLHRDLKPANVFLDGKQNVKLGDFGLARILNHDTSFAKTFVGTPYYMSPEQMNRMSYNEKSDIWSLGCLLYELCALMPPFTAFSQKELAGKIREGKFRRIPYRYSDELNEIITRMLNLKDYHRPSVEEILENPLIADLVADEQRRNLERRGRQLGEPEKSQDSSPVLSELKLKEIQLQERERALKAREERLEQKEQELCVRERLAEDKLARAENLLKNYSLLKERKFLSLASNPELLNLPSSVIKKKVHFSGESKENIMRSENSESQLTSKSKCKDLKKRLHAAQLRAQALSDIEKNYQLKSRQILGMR
Procedure, shortened: as §1

WNK3 = biological target: T16, WNK3 (Homo sapiens, UniProt Q9BYP7)
T16 construct: purchased Carna Biosciences
Procedure, shortened: as §1

MSK2 = biological target: T17, MSK2 (Homo sapiens, UniProt O75676)
T17 construct: purchased Carna Biosciences
Procedure, shortened: as §1

KIT(D816V) = biological target: T18, KIT(D816V) (Homo sapiens, UniProt P10721, D816V)
T18 construct: purchased Carna Biosciences
Procedure, shortened: as §1

BRAF_Cascade = biological target: T19, BRAF_Cascade (Homo sapiens, UniProt P15056)
T19 construct: purchased Carna Biosciences
Procedure, shortened: as §1

TSSK1 = biological target: T20, TSSK1 (Homo sapiens, UniProt Q9BXA7)
T20 construct: purchased Carna Biosciences
Procedure, shortened: as §1

MARK3 = biological target: T21, MARK3 (Homo sapiens, UniProt P27448)
T21 construct: purchased Carna Biosciences
Procedure, shortened: as §1

NEK4 = biological target: T22, NEK4 (Homo sapiens, UniProt P51957)
T22 construct: purchased Carna Biosciences
Procedure, shortened: as §1

TEC = biological target: T23, TEC (Homo sapiens, UniProt P42680)
T23 construct: purchased Carna Biosciences
Procedure, shortened: as §1

MAP4K2 = biological target: T24, MAP4K2 (Homo sapiens, UniProt Q12851)
T24 construct: purchased Carna Biosciences
Procedure, shortened: as §1

RET(M918T) = biological target: T25, RET(M918T) (Homo sapiens, UniProt P07949, M918T)
T25 construct: purchased Carna Biosciences
T25 sequence (P07949 29-1114 M918T): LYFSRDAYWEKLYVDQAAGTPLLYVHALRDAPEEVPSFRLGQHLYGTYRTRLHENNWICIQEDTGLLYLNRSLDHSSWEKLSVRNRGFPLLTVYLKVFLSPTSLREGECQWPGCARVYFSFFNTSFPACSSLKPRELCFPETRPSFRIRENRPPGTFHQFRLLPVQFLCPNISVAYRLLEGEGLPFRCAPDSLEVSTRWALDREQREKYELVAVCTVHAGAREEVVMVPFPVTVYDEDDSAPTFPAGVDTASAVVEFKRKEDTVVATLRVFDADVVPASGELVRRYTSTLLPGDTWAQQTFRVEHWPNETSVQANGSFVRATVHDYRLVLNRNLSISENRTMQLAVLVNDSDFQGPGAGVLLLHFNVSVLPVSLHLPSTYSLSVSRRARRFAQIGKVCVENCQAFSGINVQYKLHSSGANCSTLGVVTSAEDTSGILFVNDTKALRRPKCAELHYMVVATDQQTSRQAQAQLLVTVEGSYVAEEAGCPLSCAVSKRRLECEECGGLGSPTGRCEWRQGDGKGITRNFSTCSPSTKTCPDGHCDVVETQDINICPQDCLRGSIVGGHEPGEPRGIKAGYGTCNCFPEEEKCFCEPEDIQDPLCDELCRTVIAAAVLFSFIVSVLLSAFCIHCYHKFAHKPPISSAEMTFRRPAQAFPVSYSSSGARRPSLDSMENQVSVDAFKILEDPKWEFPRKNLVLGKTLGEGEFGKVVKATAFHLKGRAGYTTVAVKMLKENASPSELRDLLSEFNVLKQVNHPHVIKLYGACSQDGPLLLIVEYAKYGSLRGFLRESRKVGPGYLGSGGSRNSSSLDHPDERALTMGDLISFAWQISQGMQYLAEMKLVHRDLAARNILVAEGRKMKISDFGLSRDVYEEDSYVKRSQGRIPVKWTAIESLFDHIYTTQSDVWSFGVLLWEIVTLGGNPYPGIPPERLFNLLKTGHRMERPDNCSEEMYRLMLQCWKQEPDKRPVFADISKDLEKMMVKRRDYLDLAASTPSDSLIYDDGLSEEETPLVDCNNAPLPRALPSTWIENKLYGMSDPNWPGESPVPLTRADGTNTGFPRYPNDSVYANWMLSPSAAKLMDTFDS
Procedure, shortened: as §1

CGK2 = biological target: T26, CGK2 (Homo sapiens, UniProt Q13237)
T26 construct: purchased Carna Biosciences
Procedure, shortened: as §1

EPHA6 = biological target: T27, EPHA6 (Homo sapiens, UniProt Q9UF33)
T27 construct: purchased Carna Biosciences
Procedure, shortened: as §1

WNK1 = biological target: T28, WNK1 (Homo sapiens, UniProt Q9H4A3)
T28 construct: purchased Carna Biosciences
Procedure, shortened: as §1

TNIK = biological target: T29, TNIK (Homo sapiens, UniProt Q9UKE5)
T29 construct: purchased Carna Biosciences
Procedure, shortened: as §1

PKD3 = biological target: T30, PKD3 (Homo sapiens, UniProt O94806)
T30 construct: purchased Carna Biosciences
Procedure, shortened: as §1

TYRO3 = biological target: T31, TYRO3 (Homo sapiens, UniProt Q06418)
T31 construct: purchased Carna Biosciences
Procedure, shortened: as §1

DCAMKL2 = biological target: T32, DCAMKL2 (Homo sapiens, UniProt Q8N568)
T32 construct: purchased Carna Biosciences
Procedure, shortened: as §1

FGFR2 = biological target: T33, FGFR2 (Homo sapiens, UniProt P21802)
T33 construct: purchased Carna Biosciences
T33 sequence (P21802 22-821): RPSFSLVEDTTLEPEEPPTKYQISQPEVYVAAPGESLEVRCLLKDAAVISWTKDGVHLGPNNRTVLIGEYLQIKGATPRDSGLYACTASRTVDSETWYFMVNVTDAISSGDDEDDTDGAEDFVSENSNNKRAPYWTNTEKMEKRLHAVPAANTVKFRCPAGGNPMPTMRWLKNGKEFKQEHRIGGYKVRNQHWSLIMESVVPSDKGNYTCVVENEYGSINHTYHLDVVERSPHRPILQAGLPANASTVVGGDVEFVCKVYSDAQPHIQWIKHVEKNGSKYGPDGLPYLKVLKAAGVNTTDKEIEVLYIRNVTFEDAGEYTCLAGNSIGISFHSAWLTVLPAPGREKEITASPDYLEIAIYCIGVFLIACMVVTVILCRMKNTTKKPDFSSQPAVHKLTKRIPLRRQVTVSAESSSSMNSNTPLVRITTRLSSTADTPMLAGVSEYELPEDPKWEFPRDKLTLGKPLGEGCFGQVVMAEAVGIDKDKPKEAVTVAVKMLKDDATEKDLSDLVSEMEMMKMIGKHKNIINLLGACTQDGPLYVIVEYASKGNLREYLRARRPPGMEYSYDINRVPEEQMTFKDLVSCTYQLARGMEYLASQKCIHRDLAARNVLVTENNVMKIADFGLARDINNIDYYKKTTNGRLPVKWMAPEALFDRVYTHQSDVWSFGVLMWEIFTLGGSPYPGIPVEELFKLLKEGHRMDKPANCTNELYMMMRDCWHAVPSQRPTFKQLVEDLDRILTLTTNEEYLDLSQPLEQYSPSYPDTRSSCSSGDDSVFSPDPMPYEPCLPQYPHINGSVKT
Procedure, shortened: as §1

SGK2 = biological target: T34, SGK2 (Homo sapiens, UniProt Q9HBY8)
T34 construct: purchased Carna Biosciences
Procedure, shortened: as §1

PAK4 = biological target: T35, PAK4 (Homo sapiens, UniProt O96013)
T35 construct: purchased Carna Biosciences
T35 sequence (O96013 whole entry): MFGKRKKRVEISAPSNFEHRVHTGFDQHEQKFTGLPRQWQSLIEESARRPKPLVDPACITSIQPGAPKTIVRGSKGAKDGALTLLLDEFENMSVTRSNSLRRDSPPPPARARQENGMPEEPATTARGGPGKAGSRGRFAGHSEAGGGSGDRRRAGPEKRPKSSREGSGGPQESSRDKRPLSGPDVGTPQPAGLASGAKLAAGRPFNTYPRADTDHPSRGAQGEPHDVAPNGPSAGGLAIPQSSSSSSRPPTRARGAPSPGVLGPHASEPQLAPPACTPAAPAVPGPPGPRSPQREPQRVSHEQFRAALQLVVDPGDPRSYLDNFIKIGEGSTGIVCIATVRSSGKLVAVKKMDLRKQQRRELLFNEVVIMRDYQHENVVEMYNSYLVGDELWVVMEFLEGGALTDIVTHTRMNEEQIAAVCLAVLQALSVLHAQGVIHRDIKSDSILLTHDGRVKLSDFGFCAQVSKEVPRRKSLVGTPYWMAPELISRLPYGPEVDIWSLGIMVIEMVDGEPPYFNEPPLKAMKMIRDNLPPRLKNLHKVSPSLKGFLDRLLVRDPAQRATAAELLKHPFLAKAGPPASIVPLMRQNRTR
Procedure, shortened: as §1

FLT4 = biological target: T36, FLT4 (Homo sapiens, UniProt P35916)
T36 construct: purchased Carna Biosciences
Procedure, shortened: as §1

T1 sequence (P48729 whole entry): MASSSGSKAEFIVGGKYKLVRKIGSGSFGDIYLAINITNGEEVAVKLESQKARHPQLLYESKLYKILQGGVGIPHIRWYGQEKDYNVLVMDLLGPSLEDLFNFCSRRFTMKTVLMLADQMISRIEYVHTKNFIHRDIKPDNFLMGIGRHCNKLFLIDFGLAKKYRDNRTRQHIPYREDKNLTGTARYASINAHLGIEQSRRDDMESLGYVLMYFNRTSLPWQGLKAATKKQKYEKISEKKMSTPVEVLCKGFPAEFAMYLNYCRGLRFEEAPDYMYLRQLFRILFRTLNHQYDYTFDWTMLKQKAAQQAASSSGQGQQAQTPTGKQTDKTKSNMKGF

[H]/N=C1/NC(=O)C(=Cc2ccc3c(c2)CCO3)S1 [CaNDY, (Z)-5-[(2,3-dihydrobenzofuran-5-yl)methylene]-2-iminothiazolidin-4-one]
remaining activity at 1 µM (CK1α): 73.6%
remaining activity at 1 µM (p38β): 99.7%
remaining activity at 1 µM (TSSK2): 102%
remaining activity at 1 µM (skMLCK): 96.2%
remaining activity at 1 µM (ABL): 103%
%Activity (EGFR(L861Q)): 103.3%
remaining activity at 1 µM (MRCKα): 128%
remaining activity at 1 µM (PDGFRβ): 91.7%
remaining activity at 1 µM (EPHA2): 100%
%Activity (CK1γ1): 83.4%
remaining activity at 1 µM (PRKX): 97.6%
remaining activity at 1 µM (PIM3): 41.4%
remaining activity at 1 µM (MELK): 91.5%
remaining activity at 1 µM (SRC): 102%
remaining activity at 1 µM (NEK2): 95.3%
remaining activity at 1 µM (WNK3): 102%
remaining activity at 1 µM (MSK2): 98.3%
remaining activity at 1 µM (KIT(D816V)): 92.2%
remaining activity at 1 µM (BRAF_Cascade): 108%
remaining activity at 1 µM (TSSK1): 94.5%
remaining activity at 1 µM (MARK3): 95%
remaining activity at 1 µM (NEK4): 86.2%
remaining activity at 1 µM (TEC): 103%
remaining activity at 1 µM (MAP4K2): 76.7%
remaining activity at 1 µM (RET(M918T)): 102%
remaining activity at 1 µM (CGK2): 71.1%
remaining activity at 1 µM (EPHA6): 96.8%
%Activity (WNK1): 98.8%
remaining activity at 1 µM (TNIK): 60%
remaining activity at 1 µM (PKD3): 85.9%
remaining activity at 1 µM (TYRO3): 104%
remaining activity at 1 µM (DCAMKL2): 102%
remaining activity at 1 µM (FGFR2): 104%
remaining activity at 1 µM (SGK2): 88.6%
remaining activity at 1 µM (PAK4): 95%
remaining activity at 1 µM (FLT4): 103%

Reference: article PMC4522657, “Identification of a DYRK1A Inhibitor that Induces Degradation of the Target Kinase using Co-chaperone CDC37 fused with Luciferase nanoKAZ” (Scientific Reports, 2015)
